Reference: PubChem BioAssay (NCI)
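Exposure lasted 48 hours, with cells grown in 96-well plates and compounds tested at five concentrations. GI50 is the concentration that inhibits growth by half. TGI marks complete inhibition of growth.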

What was measured:
Test in all cases: growth of human tumour cells (NCI), 48 h
[1] = system: HCT-116 colon
[2] = system: CCRF-CEM leukemia
[3] = system: SW-620 colon
[4] = system: CAKI-1 renal
[5] = system: TK-10 renal
[6] = system: U251 CNS
[7] = system: KM12 colon
[8] = system: NCI-H23 lung
[9] = system: HT29 colon
[10] = system: IGROV1 ovarian

Row | Compound | GI50 [1] [µM] | TGI [1] [µM] | GI50 [2] [µM] | TGI [2] [µM] | GI50 [3] [µM] | TGI [3] [µM] | GI50 [4] [µM] | TGI [4] [µM] | GI50 [5] [µM] | TGI [5] [µM] | GI50 [6] [µM] | TGI [6] [µM] | GI50 [7] [µM] | TGI [7] [µM] | GI50 [8] [µM] | TGI [8] [µM] | GI50 [9] [µM] | TGI [9] [µM] | GI50 [10] [µM] | TGI [10] [µM]
1 | CC(C)(C)OC(=O)N(CCCn1c2c(c3ccccc3c1=O)C(=O)c1ccccc1-2)CCN(CCCn1c2c(c3ccccc3c1=O)C(=O)c1ccccc1-2)C(=O)OC(C)(C)C | 14.1 | > 50 | 4.93 | > 50 | 49.1 | > 50 | 37.9 | > 50 | > 50 | > 50 | 15.5 | > 50 | > 50 | > 50 | > 50 | > 50 | > 50 | > 50 | 21.8 | > 50
2 | Cc1cc2cc(Oc3ccnc(Nc4cccc(CS(=O)(=O)NCCN(C)C)c4)n3)ccc2[nH]1 | 3.33 | 14 | 3.36 | 11.3 | 7.99 | 23.5 | 3.31 | 16.6 | 12.5 | 25.3 | 5.33 | 18.4 | 1.29 | 13.3 | 8.8 | 23.6 | 2.96 | 10.6 | 4.51 | 18.9
3 | CO/N=C(\COc1ccc2c(=O)cc(-c3ccccc3)oc2c1)c1ccc(OC)cc1 | > 100 | > 100 | > 100 | > 100 | > 100 | > 100 | 24.9 | 70.3 | > 100 | > 100 | > 100 | > 100 | 81.4 | > 100 | > 100 | > 100 | > 100 | > 100 | > 100 | > 100
4 | CC(C)(C)c1ccc(NC(=O)c2cc(=O)c3ccccc3[nH]2)c(C(C)(C)C)c1O | 3.71 | 13.4 | 2.33 | 8.25 | 8.24 | 27.1 | 5.74 | 19.2 | 14.5 | 27.9 | 3.59 | 12.9 | 3.13 | 8.53 | 3.33 | 14.1 | 2.21 | 4.78 | 10.4 | 22.7
5 | O=C(O)C1(C(=O)O)CCN(S(=O)(=O)c2ccccc2)CC1 | – | > 100 | – | > 100 | – | > 100 | – | > 100 | – | > 100 | – | > 100 | – | > 100 | – | > 100 | – | > 100 | – | > 100
6 | O=C(/C=C/c1ccccc1)c1ccc(O)c(CN2CCN(c3cc4c(cc3F)c(=O)c(C(=O)O)cn4C3CC3)CC2)c1 | 0.43 | > 100 | 0.598 | > 100 | 2.28 | > 100 | 2.42 | > 100 | 6.37 | > 100 | 0.389 | > 100 | 1.69 | 21 | 2.2 | 16.9 | 1.58 | > 100 | 1.36 | 36.6
7 | NC(CCc1nc(-c2ccccc2)cs1)C(=O)O (stereo not given) | – | > 100 | – | > 100 | – | > 100 | – | > 100 | – | > 100 | – | > 100 | – | > 100 | – | > 100 | – | > 100 | – | > 100
8 | CC(C)c1cccc2sc(NC(=O)C(=O)CC(=O)c3ccc(F)cc3)nc12 | – | > 100 | – | > 100 | – | > 100 | – | > 100 | – | > 100 | – | > 100 | – | > 100 | – | > 100 | – | > 100 | – | > 100
9 | O=C(Oc1ccccc1Cl)c1cccnc1Nc1ccnc(C(F)(F)F)c1 | 2.13 | 4.35 | 2.4 | 6.52 | 3.72 | 22.3 | 23.1 | 50 | 24.7 | 70.7 | 17.6 | 32.9 | 14.4 | 32.6 | 8.79 | 23.7 | 25.3 | 71.5 | 10.7 | 30.4
10 | CCC1(c2ccncc2)CCC(=O)NC1=O (stereo not given) | – | > 100 | – | > 100 | – | > 100 | – | > 100 | – | > 100 | – | > 100 | – | > 100 | – | > 100 | – | > 100 | – | > 100
11 | CC(=O)[CH-]C(=O)c1ccccc1.CC(=O)[CH-]C(=O)c1ccccc1.CC(C)CCCC(C)[C@H]1CCC2[C@@H]3CCC4C[C@@H]([O-])CC[C@]4(C)C3CC[C@@]21C.CC(C)CCCC(C)[C@H]1CCC2[C@@H]3CCC4C[C@@H]([O-])CC[C@]4(C)C3CC[C@@]21C.Cl.[Ti+4] (stereo not given in full) | > 25 | > 25 | > 25 | > 25 | > 25 | > 25 | > 25 | > 25 | > 25 | > 25 | > 25 | > 25 | > 25 | > 25 | > 25 | > 25 | > 25 | > 25 | > 25 | > 25
12 | O=C(O/N=C1/CCC/C1=C\c1ccccc1)c1ccc(Cl)cc1 | – | > 100 | – | > 100 | – | > 100 | – | > 82.4 | – | > 100 | – | > 89.8 | – | > 100 | – | > 95.3 | – | > 100 | – | > 65
13 | C/C(=C\c1ccccc1)C(O)S(=O)(=O)O (stereo not given) | – | > 100 | – | > 100 | – | > 100 | – | > 100 | – | > 100 | – | > 100 | – | > 100 | – | > 100 | – | > 100 | – | > 100
14 | CC(C)NCCCNC1=C(Cl)C(=O)c2ccccc2C1=O | 2.12 | 5.28 | 3.56 | 17.6 | 1.74 | 3.37 | 5.83 | 20.9 | 22.7 | 38.8 | 2.7 | 6.82 | 9.59 | 22.3 | 1.88 | 4.56 | 2.5 | 5.12 | 2.33 | 5.16
15 | COc1ccc(OC)c(-c2cn3nc(-c4c[nH]c5ccc(Br)cc45)sc3n2)c1 | 1.67 | 3.28 | 3.73 | > 100 | 2.26 | 5.28 | 2.04 | 6.22 | 3.18 | 6.54 | 2.02 | 4.09 | 2.19 | 6.24 | 1.99 | 4.82 | 2.28 | 4.75 | 2.27 | 11.5
16 | CCCCn1c(=O)c(/C=C/C(=O)/C=C/c2ccc(O)c(OC)c2)cc2ccc(Cl)cc21 | 1.52 | 3 | 2.79 | 22 | 2.05 | 4.37 | 2.16 | 3.91 | 2.51 | 5.47 | 1.59 | 3.08 | 1.89 | 3.66 | 2.06 | 4.98 | 0.846 | 2.57 | 1.92 | 4.1
17 | O=S(O)CCCCSSCCCCS(=O)(O)=S | – | > 100 | – | > 100 | – | > 100 | – | > 100 | – | > 100 | – | > 100 | – | > 100 | – | > 100 | – | > 100 | – | > 100
18 | COc1ccc(-n2nc(C)c3c(Nc4ccc(NC(=O)Nc5cc(C(F)(F)F)ccc5F)cc4)ncnc32)cc1 | 2.81 | 10.3 | 2.94 | > 100 | 3.45 | 22.6 | 2.01 | 6.87 | 3.74 | > 100 | 1.77 | 4.03 | 2.55 | 7.32 | 2.22 | 6.71 | 2.31 | 5.8 | 2.98 | 11.1
